Results reported in patent US9227971B2, “Pyrazolo[1,5-a]pyrimidine compounds as mTOR inhibitors” (Merck Sharp & Dohme Corp., priority 2010, dated 2016).
Where two headings read alike, the source gives them in different places.

Experiments:
[1] = tested on: phosphorylated AKT Ser473 (pAKT S473), mTORC2 activity, PC3 cells; assay: mTOR target engagement assay, immunofluorescent cell-based, pAKT S473 readout (mTORC2 activity)
How it was run: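 After blocking, cells were stained overnight at 4 °C with anti-pAKT S473 antibody, then a fluorescent secondary; inhibition was read as reduced fluorescence intensity.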

[2] = tested on: phosphorylated 4E-BP1 Thr37/46 (p4E-BP1 Thr37/46), mTORC1 activity, PC3 cells; assay: mTOR target engagement assay, immunofluorescent cell-based, p4E-BP1 Thr37/46 readout (mTORC1 activity); conditions: read-out: p4E-BP1 Thr37/46 IC50
How it was run: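 Cell-based immunofluorescence in PC3 cells: serially diluted compounds (0.25% DMSO, 5% FBS) applied for ninety minutes at 37° C before fixation and overnight 4° C staining of p4E-BP1 Thr37/46. Untreated DMSO wells set maximal phosphorylation; IC50 obtained by logistic fitting.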

[3] = Homo sapiens, PC-3, PC3 cells, compound treatment ninety minutes at 37° C.
[4] = Homo sapiens, PC-3, Table 3-1, PC3 cells
[5] = PC3 cells, compound treatment ninety minutes at 37° C.

Molecule | IC50 [1, 3] [nM] | IC50 [2, 3] [nM] | IC50 ([1]; Homo sapiens, PC-3, PC3 cells) [nM] | IC50 ([2]; Homo sapiens, PC-3, PC3 cells) [nM] | also measured
[2H]C([2H])([2H])Oc1ccc(-c2ccc(-c3cnn4c(N)c(C(C)=O)c([C@@H]5C[C@H]6CC[C@@H](C5)N6C(=O)c5nnc[nH]5)nc34)cn2)cc1 [Compound 1.1.77, 1-(5-((1R,3s,5S)-8-(4H-1,2,4-triazole-3-carbonyl)-8-azabicyclo[3.2.1]octan-3-yl)-7-amino-3-(6-(4-methoxy-(D3)-phenyl)pyridin-3-yl)pyrazolo[1,5-a]pyrimidin-6-yl)ethanone] | 1 to 100 | 1 to 100 |  |  | 
CC(=O)c1c([C@@H]2C[C@H]3CC[C@@H](C2)N3C(=O)c2nnc[nH]2)nc2c(-c3ccc(C(N)(C(F)(F)F)C(F)(F)F)nc3)cnn2c1N [Compound 7.80, 1-(5-((1R,3s,5S)-8-(4H-1,2,4-triazole-3-carbonyl)-8-azabicyclo[3.2.1]octan-3-yl)-7-amino-3-(6-(2-amino-1,1,1,3,3,3-hexafluoropropan-2-yl)pyridin-3-yl)pyrazolo[1,5-a]pyrimidin-6-yl)ethanone] |  |  | 1000 to 10000 | 100 to 1000 | 
Cc1csc(-c2ccc(-c3cnn4c(N)c(S(C)(=O)=O)c([C@@H]5C[C@H]6CC[C@@H](C5)N6C(=O)c5nnc[nH]5)nc34)cn2)n1 [Compound 3.192, ((1R,3s,5S)-3-(7-amino-6-(methylsulfonyl)-3-(6-(4-methylthiazol-2-yl)pyridin-3-yl)pyrazolo[1,5-a]pyrimidin-5-yl)-8-azabicyclo[3.2.1]octan-8-yl)(4H-1,2,4-triazol-3-yl)methanone] |  |  |  |  | IC50 [1, 4]: 100 to 1000 nM; IC50 [2, 4]: 100 to 1000 nM
CS(=O)(=O)c1c([C@@H]2C[C@H]3CC[C@@H](C2)N3C(=O)c2nnc[nH]2)nc2c(-c3ccc(C4(N)CC4)c(F)c3)cnn2c1N [Compound 8.44, ((1R,3s,5S)-3-(7-amino-3-(4-(1-aminocyclopropyl)-3-fluorophenyl)-6-(methylsulfonyl)pyrazolo[1,5-a]pyrimidin-5-yl)-8-azabicyclo[3.2.1]octan-8-yl)(4H-1,2,4-triazol-3-yl)methanone] |  |  | 1000 to 10000 | 1000 to 10000 | 
CC(=O)c1c(N2C3CCC2CN(C(=O)[C@@H](C)O)C3)nc2c(-c3ccc(-c4ccccc4)nc3)cnn2c1N [Compound 8.6, (2R)-1-(8-(6-acetyl-7-amino-3-(6-phenylpyridin-3-yl)pyrazolo[1,5-a]pyrimidin-5-yl)-3,8-diazabicyclo[3.2.1]octan-3-yl)-2-hydroxypropan-1-one] |  |  | 100 to 1000 | 1000 to 10000 | 
CC(=O)c1c([C@@H]2C[C@H]3CC[C@@H](C2)N3C(=O)c2nnc[nH]2)nc2c(-c3ccc(-c4ccccc4F)nc3)cnn2c1N [Compound 1.1.145, 1-(5-((1R,3s,5S)-8-(4H-1,2,4-triazole-3-carbonyl)-8-azabicyclo[3.2.1]octan-3-yl)-7-amino-3-(6-(2-fluorophenyl)pyridin-3-yl)pyrazolo[1,5-a]pyrimidin-6-yl)ethanone] | 1 to 100 | 1 to 100 |  |  | 
COCCNc1nnc(C(=O)N2[C@@H]3CC[C@H]2C[C@H](c2nc4c(-c5ccc(-c6ccccc6)nc5)cnn4c(N)c2C2CC2)C3)[nH]1 [Compound 4.31, ((1R,3s,5S)-3-(7-amino-6-cyclopropyl-3-(6-phenylpyridin-3-yl)pyrazolo[1,5-a]pyrimidin-5-yl)-8-azabicyclo[3.2.1]octan-8-yl)(5-(2-methoxyethylamino)-4H-1,2,4-triazol-3-yl)methanone] | 1000 to 10000 | 1000 to 10000 |  |  | 
COc1ccc(-c2ncc(-c3cnn4c(N)c(S(C)(=O)=O)c([C@@H]5C[C@H]6CC[C@@H](C5)N6C(=O)CO)nc34)cn2)c(F)c1F [Compound 3.149, 1-((1R,3s,5S)-3-(7-amino-3-(2-(2,3-difluoro-4-methoxyphenyl)pyrimidin-5-yl)-6-(methylsulfonyl)pyrazolo[1,5-a]pyrimidin-5-yl)-8-azabicyclo[3.2.1]octan-8-yl)-2-hydroxyethanone] |  |  |  |  | IC50 [1, 4]: 1000 to 10000 nM; IC50 [2, 4]: 100 to 1000 nM
CNc1c(S(C)(=O)=O)c([C@@H]2C[C@H]3CC[C@@H](C2)N3C(=O)c2nnc[nH]2)nc2c(-c3ccc(-c4ccccc4)nc3)cnn12 [Compound 8.41, ((1R,3s,5S)-3-(7-(methylamino)-6-(methylsulfonyl)-3-(6-phenylpyridin-3-yl)pyrazolo[1,5-a]pyrimidin-5-yl)-8-azabicyclo[3.2.1]octan-8-yl)(4H-1,2,4-triazol-3-yl)methanone] |  |  | 1 to 100 | 100 to 1000 | 
(1R,3s,5S)-2-methoxyethyl 3-(6-acetyl-7-amino-3-(6-(1-methyl-1H-pyrazol-3-yl)pyridin-3-yl)pyrazolo[1,5-a]pyrimidin-5-yl)-8-azabicyclo[3.2.1]octane-8-carboxylate [Compound 1.1.109] |  |  |  |  | IC50 [1, 5]: 1000 to 10000 nM; IC50 [2, 5]: 1000 to 10000 nM
CC(=O)c1c([C@@H]2C[C@H]3CC[C@@H](C2)N3C(=O)c2cc(N)n[nH]2)nc2c(-c3ccc(C(O)(C(F)(F)F)C(F)(F)F)nc3)cnn2c1N [Compound 7.79, 1-(7-amino-5-((1R,3s,5S)-8-(3-amino-1H-pyrazole-5-carbonyl)-8-azabicyclo[3.2.1]octan-3-yl)-3-(6-(1,1,1,3,3,3-hexafluoro-2-hydroxypropan-2-yl)pyridin-3-yl)pyrazolo[1,5-a]pyrimidin-6-yl)ethanone] |  |  | 100 to 1000 | 100 to 1000 | 
CS(=O)(=O)c1c([C@@H]2C[C@H]3CC[C@@H](C2)N3C(=O)[C@@H]2COC(=O)N2)nc2c(-c3ccc(-c4ccccc4)nc3)cnn2c1N [Compound 3.141, (S)-4-((1R,3R,5S)-3-(7-amino-6-(methylsulfonyl)-3-(6-phenylpyridin-3-yl)pyrazolo[1,5-a]pyrimidin-5-yl)-8-azabicyclo[3.2.1]octane-8-carbonyl)oxazolidin-2-one] |  |  |  |  | IC50 [1, 4]: 1000 to 10000 nM; IC50 [2, 4]: 1000 to 10000 nM
CC(=O)c1c([C@@H]2C[C@H]3CC[C@@H](C2)N3C(=O)[C@@H](C)O)nc2c(-c3ccc(-c4ccc(F)cc4F)nc3)cnn2c1N [Compound 1.1.168, (R)-1-((1R,3S,5S)-3-(6-acetyl-7-amino-3-(6-(2,4-difluorophenyl)pyridin-3-yl)pyrazolo[1,5-a]pyrimidin-5-yl)-8-azabicyclo[3.2.1]octan-8-yl)-2-hydroxypropan-1-one] | 100 to 1000 | 100 to 1000 |  |  | 
CC(=O)c1c([C@@H]2C[C@H]3CC[C@@H](C2)N3C(=O)c2cc[nH]c2)nc2c(-c3ccc(-c4ccccc4)nc3)cnn2c1N [Compound 1.1.41, 1-(5-((1R,3s,5S)-8-(1H-pyrrole-3-carbonyl)-8-azabicyclo[3.2.1]octan-3-yl)-7-amino-3-(6-phenylpyridin-3-yl)pyrazolo[1,5-a]pyrimidin-6-yl)ethanone] | 1 to 100 | 1 to 100 |  |  | 
CS(=O)(=O)c1c([C@]2(O)C[C@H]3CC[C@@H](C2)N3C(=O)c2nnc[nH]2)nc2c(-c3ccc(-c4ccccc4)nc3)cnn2c1N [Compound 8.22, ((1R,3r,5S)-3-(7-amino-6-(methylsulfonyl)-3-(6-phenylpyridin-3-yl)pyrazolo[1,5-a]pyrimidin-5-yl)-3-hydroxy-8-azabicyclo[3.2.1]octan-8-yl)(4H-1,2,4-triazol-3-yl)methanone] |  |  | 100 to 1000 | 1000 to 10000 | 
CC(=O)Nc1nnc(C(=O)N2[C@@H]3CC[C@H]2C[C@H](c2nc4c(-c5ccc(-c6ccccc6)nc5)cnn4c(N)c2S(C)(=O)=O)C3)[nH]1 [Compound 3.89] |  |  |  |  | IC50 [1, 4]: 100 to 1000 nM; IC50 [2, 4]: 100 to 1000 nM
